Columns and labels:
[1] = molecular target: NAMPT (human, recombinant, C-terminally His-tagged) (Homo sapiens, UniProt P43490); test: Time-Resolved Fluorescence Resonance Energy Transfer (TR-FRET) Binding Assay of NAMPT; conditions: without substrates; 6.8 nM NAMPT, 200 nM probe, 3 hours equilibration
How it was run: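 Competitive binding against an Oregon Green 488 tracer (200 nM), 6.8 nM His-tagged enzyme, 1 nM Tb antibody, 2% DMSO, 3 h at RT. IC50 derived from TR-FRET ratios.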

NAMPT = NAMPT (Homo sapiens, UniProt P43490); test: TR-FRET Binding Assay of NAMPT with PRPP; conditions: with 200 μM PRPP and 2.5 mM ATP; 2 nM NAMPT, 2 nM probe, 16 hours equilibration
NAMPT, sequence (P43490 whole entry): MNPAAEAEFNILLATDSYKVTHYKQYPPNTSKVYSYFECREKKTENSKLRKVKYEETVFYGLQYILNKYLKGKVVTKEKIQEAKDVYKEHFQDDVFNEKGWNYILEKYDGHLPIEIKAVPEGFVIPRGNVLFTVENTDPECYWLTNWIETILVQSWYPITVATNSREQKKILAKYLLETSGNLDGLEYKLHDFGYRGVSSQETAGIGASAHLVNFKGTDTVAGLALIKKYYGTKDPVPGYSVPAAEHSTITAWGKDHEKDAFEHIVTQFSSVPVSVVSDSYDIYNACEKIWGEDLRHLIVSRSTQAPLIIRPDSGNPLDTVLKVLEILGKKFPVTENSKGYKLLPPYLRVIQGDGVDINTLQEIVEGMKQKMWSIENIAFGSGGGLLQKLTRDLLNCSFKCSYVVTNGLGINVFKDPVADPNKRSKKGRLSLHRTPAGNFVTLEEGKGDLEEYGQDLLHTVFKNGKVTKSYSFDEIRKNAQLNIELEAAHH
How it was run: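 Read-out is TR-FRET after a 16 h equilibration allowing possible compound modification by the enzyme. Final mix: 2 nM NAMPT, 2 nM probe, 1 nM Tb-anti-His antibody, 200 μM PRPP, 2.5 mM ATP, 2% DMSO.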

PC3 cells = test: NAMPT Cell Proliferation Assay; assay type: cell-based; conditions: Homo sapiens, PC-3, 120 h, 5 days incubation, cell viability by Cell Titer Glo
How it was run: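 Cell Titer Glo viability after 5-day exposure (37° C, 5% CO2); PC3, 500 cells/well, RPMI + 10% heat-inactivated FBS, overnight attachment before dosing. Dose range 10 μM to 1×10^−5 μM, 10-fold steps. IC50 = sigmoidal fit of % inhibition.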

NAMPT (human, recombinant, C-terminally His-tagged), sequence (P43490 whole entry): as above

Row | SMILES | IC50 [1] [nM] | IC50 (NAMPT) [nM] | IC50 (PC3 cells) [nM]
1 | O=C(NCc1ccn2ccnc2c1)Nc1ccc(C2CCN(C(=O)[C@@H]3CCCO3)CC2)cc1 [Example 288, 1-(imidazo[1,2-a]pyridin-7-ylmethyl)-3-(4-{1-[(2S)-tetrahydrofuran-2-ylcarbonyl]piperidin-4-yl}phenyl)urea] | 49.5 | 0.568 | 8.11
2 | O=C(NCc1ccn2ccnc2c1)Nc1ccc(C2CCN(C(=O)[C@H]3CCCO3)CC2)cc1 [Example 289, 1-(imidazo[1,2-a]pyridin-7-ylmethyl)-3-(4-{1-[(2R)-tetrahydrofuran-2-ylcarbonyl]piperidin-4-yl}phenyl)urea] | 155 | 0.286 | 9.33
3 | CC(C)(C)OC(=O)N1CC=C(c2ccc(NC(=O)NCc3ccn4ccnc4c3)c(F)c2)CC1 [Example 290, tert-butyl 4-(3-fluoro-4-{[(imidazo[1,2-a]pyridin-7-ylmethyl)carbamoyl]amino}phenyl)-3,6-dihydropyridine-1(2H)-carboxylate] | 415 | 0.96 | 72.2
4 | CC(C)(C)OC(=O)N1CC[C@H](Oc2ccc(NC(=O)NCc3ccn4ccnc4c3)cc2)C1 [Example 291, tert-butyl (3S)-3-(4-{[(imidazo[1,2-a]pyridin-7-ylmethyl)carbamoyl]amino}phenoxy)pyrrolidine-1-carboxylate] | 159 | 0.449 | 26.1
5 | CC(C)(C)OC(=O)Nc1ccc(C(=O)NCc2ccn3ccnc3c2)cc1F [Example 292, tert-butyl {2-fluoro-4-[(imidazo[1,2-a]pyridin-7-ylmethyl)carbamoyl]phenyl}carbamate] | 1540 | 1.15 | 7220
6 | CCCn1cc(-c2ccc(C(=O)NCc3ccn4ccnc4c3)s2)cn1 [Example 293, N-(imidazo[1,2-a]pyridin-7-ylmethyl)-5-(1-propyl-1H-pyrazol-4-yl)thiophene-2-carboxamide] | 27.3 | 0.169 | 7.74
7 | O=C(NCc1ccn2ccnc2c1)c1ccc(-c2cnn(CCN3CCOCC3)c2)s1 [Example 294, N-(imidazo[1,2-a]pyridin-7-ylmethyl)-5-{1-[2-(morpholin-4-yl)ethyl]-1H-pyrazol-4-yl}thiophene-2-carboxamide] | 44.7 | 0.169 | 1.88
8 | CCn1cc(-c2ccc(C(=O)NCc3ccn4ccnc4c3)s2)cn1 [Example 295, 5-(1-ethyl-1H-pyrazol-4-yl)-N-(imidazo[1,2-a]pyridin-7-ylmethyl)thiophene-2-carboxamide] | 56.1 | 0.292 | 24.2
9 | O=C(NCc1ccn2ccnc2c1)c1ccc(-c2cnn(C3CCS(=O)(=O)C3)c2)s1 (stereo not drawn) [Example 296, 5-[1-(1,1-dioxidotetrahydrothiophen-3-yl)-1H-pyrazol-4-yl]-N-(imidazo[1,2-a]pyridin-7-ylmethyl)thiophene-2-carboxamide] | 67 | 0.226 | 11.5
10 | O=C(NCc1ccn2ccnc2c1)c1cnc(C2=CCN(C(=O)c3ccccc3)CC2)s1 [Example 297, 2-(1-benzoyl-1,2,3,6-tetrahydropyridin-4-yl)-N-(imidazo[1,2-a]pyridin-7-ylmethyl)-1,3-thiazole-5-carboxamide] | 177 | 0.286 | 35.8
11 | CC(C)(O)Cn1cc(-c2ccc(C(=O)NCc3ccn4ccnc4c3)cc2)cn1 [Example 298, 4-[1-(2-hydroxy-2-methylpropyl)-1H-pyrazol-4-yl]-N-(imidazo[1,2-a]pyridin-7-ylmethyl)benzamide] | 3410 | 0.557 | 2370
12 | O=C(NCc1ccn2ccnc2c1)c1ccc(-c2ccccc2)s1 [Example 299, N-(imidazo[1,2-a]pyridin-7-ylmethyl)-5-phenylthiophene-2-carboxamide] | 172 | 0.283 | 8640

The next lines start with the values.

Row | IC50 [1] [nM] | IC50 (NAMPT) [nM] | IC50 (PC3 cells) [nM] | SMILES
13 | 61.4 | 0.169 | 28.7 | CS(=O)(=O)CCn1cc(-c2ccc(C(=O)NCc3ccn4ccnc4c3)s2)cn1 [Example 300, N-(imidazo[1,2-a]pyridin-7-ylmethyl)-5-{1-[2-(methylsulfonyl)ethyl]-1H-pyrazol-4-yl}thiophene-2-carboxamide]
14 | 288 | 0.301 | 25.8 | CC(C)(C)OC(=O)N1CCC(c2ccc(C(=O)NCc3ccn4ccnc4c3)cc2)C1 (stereo not drawn) [Example 301, tert-butyl 3-{4-[(imidazo[1,2-a]pyridin-7-ylmethyl)carbamoyl]phenyl}pyrrolidine-1-carboxylate]
15 | 160 | 0.435 | 19.3 | CC(C)(C)OC(=O)N1CCC(c2ccc(NC(=O)NCc3ccn4ccnc4c3)cc2)C1 (stereo not drawn) [Example 302, tert-butyl 3-(4-{[(imidazo[1,2-a]pyridin-7-ylmethyl)carbamoyl]amino}phenyl)pyrrolidine-1-carboxylate]
16 | 9.99 | 0.169 | 1.79 | O=C(NCc1ccn2ccnc2c1)Nc1ccc(NS(=O)(=O)c2ccccc2-c2ccccc2)cc1 [Example 303, N-(4-{[(imidazo[1,2-a]pyridin-7-ylmethyl)carbamoyl]amino}phenyl)biphenyl-2-sulfonamide]
17 | 66.2 | 0.169 | 18.8 | C[C@@H](O)Cn1cc(-c2ccc(C(=O)NCc3ccn4ccnc4c3)s2)cn1 [Example 304, 5-{1-[(2R)-2-hydroxypropyl]-1H-pyrazol-4-yl}-N-(imidazo[1,2-a]pyridin-7-ylmethyl)thiophene-2-carboxamide]
18 | 494 | 0.449 | 1170 | O=C(CC1CCCC1)Nc1ccc(C(=O)NCc2ccn3ccnc3c2)cc1F [Example 305, 4-[(cyclopentylacetyl)amino]-3-fluoro-N-(imidazo[1,2-a]pyridin-7-ylmethyl)benzamide]
19 | 144 | 0.169 | 21.9 | CC(C)C(=O)N1CC=C(c2ccc(NC(=O)NCc3ccn4ccnc4c3)c(F)c2)CC1 [Example 306, 1-{2-fluoro-4-[1-(2-methylpropanoyl)-1,2,3,6-tetrahydropyridin-4-yl]phenyl}-3-(imidazo[1,2-a]pyridin-7-ylmethyl)urea]
20 | 50.8 | 0.169 | 13.6 | O=C(NCc1ccn2ccnc2c1)Nc1ccc(C2=CCN(C(=O)C3CCCO3)CC2)cc1F (stereo not drawn) [Example 307, 1-{2-fluoro-4-[1-(tetrahydrofuran-2-ylcarbonyl)-1,2,3,6-tetrahydropyridin-4-yl]phenyl}-3-(imidazo[1,2-a]pyridin-7-ylmethyl)urea]
21 | 306 | 0.169 | 29.5 | O=C(NCc1ccn2ccnc2c1)c1ccc(C2CCN(C(=O)[C@H]3CCOC3)CC2)cc1 [Example 308, N-(imidazo[1,2-a]pyridin-7-ylmethyl)-4-{1-[(3S)-tetrahydrofuran-3-ylcarbonyl]piperidin-4-yl}benzamide]
22 | 117 | 0.169 | 54.8 | O=C(NCc1ccn2ccnc2c1)c1ccc(C2CCN(C(=O)[C@@H]3CCOC3)CC2)cc1 [Example 309, N-(imidazo[1,2-a]pyridin-7-ylmethyl)-4-{1-[(3R)-tetrahydrofuran-3-ylcarbonyl]piperidin-4-yl}benzamide]
23 | 564 | 0.217 | 24.4 | O=C(NCc1ccn2ccnc2c1)c1ccc(C2CCN(C(=O)[C@H]3CCCO3)CC2)cc1 [Example 310, N-(imidazo[1,2-a]pyridin-7-ylmethyl)-4-{1-[(2R)-tetrahydrofuran-2-ylcarbonyl]piperidin-4-yl}benzamide]
24 | 289 | 0.274 | 19.1 | O=C(NCc1ccn2ccnc2c1)c1ccc(C2CCN(C(=O)[C@@H]3CCCO3)CC2)cc1 [Example 311, N-(imidazo[1,2-a]pyridin-7-ylmethyl)-4-{1-[(2S)-tetrahydrofuran-2-ylcarbonyl]piperidin-4-yl}benzamide]
25 | 165 | 0.243 | 65 | O=C(NCc1ccn2ccnc2c1)c1ccc(C2CCN(C(=O)CC3CC3)CC2)cc1 [Example 312, 4-[1-(cyclopropylacetyl)piperidin-4-yl]-N-(imidazo[1,2-a]pyridin-7-ylmethyl)benzamide]
26 | 531 | 0.36 | 820 | CC(=O)N1CCC(c2ccc(C(=O)NCc3ccn4ccnc4c3)cc2)CC1 [Example 313, 4-(1-acetylpiperidin-4-yl)-N-(imidazo[1,2-a]pyridin-7-ylmethyl)benzamide]
27 | 1980 | 0.581 | 395 | CC(C)(C)OC(=O)N1CC=C(c2ccc(CC(=O)Nc3ccc4nccn4c3)cc2)CC1 [Example 314, tert-butyl 4-{4-[2-(imidazo[1,2-a]pyridin-6-ylamino)-2-oxoethyl]phenyl}-3,6-dihydropyridine-1(2H)-carboxylate]
28 | 231 | 0.32 | 720 | CC(C)Cn1cc(-c2ccc(C(=O)NCc3ccn4ccnc4c3)cc2)cn1 [Example 315, N-(imidazo[1,2-a]pyridin-7-ylmethyl)-4-[1-(2-methylpropyl)-1H-pyrazol-4-yl]benzamide]

Reference: patent US9187472B2 (AbbVie Inc., priority 2012, dated 2015)
